Columns and labels:
Experiment in all cases: relative viability (nuclei count vs DMSO), 5 days (fraction); higher = more cells survive
AZ628 + Vorinostat = compound: CC1=C(C=C(C=C1)NC(=O)C2=CC(=CC=C2)C(C)(C)C#N)NC3=CC4=C(C=C3)N=CN(C4=O)C [AZ628] + O=C(CCCCCCC(=O)Nc1ccccc1)NO [Vorinostat] (partner 1 µM)
Outline: (§1)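 After 5 days of treatment, lung cancer cells in 1536-well plates were fixed and stained in a single step (final 0.05% Triton X-100, 1% formaldehyde, 1 ug/ml Hoechst) and their nuclei counted on 4× images. Treatment had been applied by pin tool the day after seeding as one drug alone or as a fixed anchor-drug dose with five library-drug doses (not always all listed) in √10 steps. Relative viability is the nuclei count of treated wells divided by that of vehicle wells, and values are medians of duplicate plates.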

Darinaparsin + Lapatinib = compound: C[As](C)SC[C@H](NC(=O)CC[C@H](N)C(=O)O)C(=O)NCC(=O)O [Darinaparsin] + CS(=O)(=O)CCNCc1ccc(-c2ccc3ncnc(Nc4ccc(OCc5cccc(F)c5)c(Cl)c4)c3c2)o1 [Lapatinib] (partner 2 µM)
Outline: as §1

AZ628 + Dasatinib = compound: CC1=C(C=C(C=C1)NC(=O)C2=CC(=CC=C2)C(C)(C)C#N)NC3=CC4=C(C=C3)N=CN(C4=O)C [AZ628] + Cc1nc(Nc2ncc(C(=O)Nc3c(C)cccc3Cl)s2)cc(N2CCN(CCO)CC2)n1 [Dasatinib] (partner 0.075 µM)
Outline: as §1

AZ628 + AZD7762 = compound: CC1=C(C=C(C=C1)NC(=O)C2=CC(=CC=C2)C(C)(C)C#N)NC3=CC4=C(C=C3)N=CN(C4=O)C [AZ628] + NC(=O)Nc1cc(-c2cccc(F)c2)sc1C(=O)N[C@H]1CCCNC1 [AZD7762] (partner 0.2 µM)
Outline: as §1

LCLC-97TM1
relative viability (AZ628 + Vorinostat; first compound 0.08 µM): 1.03 | relative viability (AZ628 + Vorinostat; first compound 0.253 µM): 0.729 | relative viability (AZ628 + Vorinostat; first compound 0.8 µM): 0.82 | relative viability (AZ628 + Vorinostat; first compound 2.53 µM): 0.756 | relative viability (AZ628 + Vorinostat; first compound 8 µM): 0.13 | relative viability (Darinaparsin + Lapatinib; first compound 0.08 µM): 0.782 | relative viability (Darinaparsin + Lapatinib; first compound 0.8 µM): 0.579 | relative viability (Darinaparsin + Lapatinib; first compound 2.53 µM): 0.803 | relative viability (Darinaparsin + Lapatinib; first compound 8 µM): 0.867 | relative viability (AZ628 + Dasatinib; first compound 0.08 µM): 0.769 | relative viability (AZ628 + Dasatinib; first compound 0.253 µM): 0.791 | relative viability (AZ628 + Dasatinib; first compound 0.8 µM): 0.508 | relative viability (AZ628 + Dasatinib; first compound 2.53 µM): 0.477 | relative viability (AZ628 + Dasatinib; first compound 8 µM): 0.168 | relative viability (AZ628 + AZD7762; first compound 0.08 µM): 0.307 | relative viability (AZ628 + AZD7762; first compound 0.253 µM): 0.331 | relative viability (AZ628 + AZD7762; first compound 0.8 µM): 0.243 | relative viability (AZ628 + AZD7762; first compound 2.53 µM): 0.201 | relative viability (AZ628 + AZD7762; first compound 8 µM): 0.108

From the supplement of paper PMC10307832
